In patent publication US11254668B2, “Pyrazolo[1,5-A]pyrazin-4-yl and related derivatives” (Pfizer Inc., priority 2017, dated 2022):

Legend:
Format in all cases: biochemical
[1] = target: TYK2 (Homo sapiens (Human), UniProt P29597); assay: JAK Caliper Enzyme Assay at 1 mM ATP, TYK2
How it was run: (§1)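 First, compound was incubated at room temperature with recombinant human kinase domain, a synthetic peptide and 1 mM ATP until 20–30% of peptide was phosphorylated. Next, EDTA stopped the reaction. Finally, electrophoretic separation quantified product, and percent effect relative to controls was plotted against concentration.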

[2] = target: JAK1 (Homo sapiens (Human), UniProt P23458); assay: JAK Caliper Enzyme Assay at 1 mM ATP, JAK1
Sequence of JAK1 (P23458 875-1153): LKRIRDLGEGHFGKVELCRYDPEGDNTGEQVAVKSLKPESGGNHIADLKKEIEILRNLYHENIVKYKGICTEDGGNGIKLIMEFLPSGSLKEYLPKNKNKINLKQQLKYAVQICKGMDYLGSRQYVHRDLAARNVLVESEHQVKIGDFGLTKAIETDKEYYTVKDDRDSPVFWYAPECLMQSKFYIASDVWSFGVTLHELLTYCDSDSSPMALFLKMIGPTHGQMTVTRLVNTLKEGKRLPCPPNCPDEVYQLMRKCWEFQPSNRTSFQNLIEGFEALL
How it was run: (§2)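 Recombinant human kinase domains phosphorylate a fluorescent synthetic peptide at 1 mM ATP, room temperature, with enzyme and time tuned for 20-30% conversion; EDTA-stopped. Product/substrate separated by microfluidic mobility shift; percent effect versus DMSO and positive controls fitted to IC50 (nM).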

[3] = target: JAK2 (Homo sapiens (Human), UniProt O60674); assay: JAK Caliper Enzyme Assay at 1 mM ATP, JAK2
Sequence of JAK2 (O60674 849-1124): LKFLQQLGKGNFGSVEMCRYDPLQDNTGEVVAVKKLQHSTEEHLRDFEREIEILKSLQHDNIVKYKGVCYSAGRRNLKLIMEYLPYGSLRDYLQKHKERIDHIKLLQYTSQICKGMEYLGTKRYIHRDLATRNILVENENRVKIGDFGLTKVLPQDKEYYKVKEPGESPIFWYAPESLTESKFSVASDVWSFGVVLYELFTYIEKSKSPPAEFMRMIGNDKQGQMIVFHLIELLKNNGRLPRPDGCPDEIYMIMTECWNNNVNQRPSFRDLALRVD
How it was run: as §1

[4] = target: JAK3 (Homo sapiens (Human), UniProt P52333); assay: JAK Caliper Enzyme Assay at 1 mM ATP, JAK3
Sequence of JAK3 (P52333 822-1111): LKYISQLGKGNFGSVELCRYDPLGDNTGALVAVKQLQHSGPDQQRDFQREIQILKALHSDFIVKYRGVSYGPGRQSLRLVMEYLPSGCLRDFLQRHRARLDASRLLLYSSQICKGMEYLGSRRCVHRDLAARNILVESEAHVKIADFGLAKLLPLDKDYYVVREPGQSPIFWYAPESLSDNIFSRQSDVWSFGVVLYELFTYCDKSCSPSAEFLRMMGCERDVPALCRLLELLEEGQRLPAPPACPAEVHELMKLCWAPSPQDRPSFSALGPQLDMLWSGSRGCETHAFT
How it was run: as §2

Sequence of TYK2 (P29597 897-1176): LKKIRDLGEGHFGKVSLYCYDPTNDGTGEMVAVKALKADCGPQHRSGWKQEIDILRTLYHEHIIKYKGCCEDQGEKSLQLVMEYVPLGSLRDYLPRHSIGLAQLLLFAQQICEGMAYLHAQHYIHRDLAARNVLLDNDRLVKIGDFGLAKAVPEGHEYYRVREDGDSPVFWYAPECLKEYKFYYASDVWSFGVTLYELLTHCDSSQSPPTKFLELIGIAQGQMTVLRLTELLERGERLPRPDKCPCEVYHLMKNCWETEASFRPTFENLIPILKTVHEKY

| IC50 [1] [nM] | IC50 [2] [nM] | IC50 [3] [nM] | IC50 [4] [nM] | SMILES |
| --- | --- | --- | --- | --- |
| 8 | 122 | 48 | 2730 | N#CC[C@]1(n2ncc(-c3cc(-c4cn[nH]c4)cc4ncccc34)n2)C[C@@H](C#N)C1 [Example 316, cis-3-(cyanomethyl)-3-{4-[7-(1H-pyrazol-4-yl)quinolin-5-yl]-2H-1,2,3-triazol-2-yl}cyclobutanecarbonitrile] |
| 57 | 2830 | 838 | > 10000 | N#CC[C@]1(n2ncc(-c3cc(-c4c[nH]nc4CO)cc4ncccc34)n2)C[C@H](C#N)C1 [Example 317, trans-3-(cyanomethyl)-3-(4-{7-[3-(hydroxymethyl)-1H-pyrazol-4-yl]quinolin-5-yl}-2H-1,2,3-triazol-2-yl)cyclobutanecarbonitrile] |
| 17 | 540 | 137 | 9270 | N#CC[C@]1(n2ncc(-c3cc(-c4c[nH]nc4CO)cc4ncccc34)n2)C[C@@H](C#N)C1 [Example 318, cis-3-(cyanomethyl)-3-(4-{7-[3-(hydroxymethyl)-1H-pyrazol-4-yl]quinolin-5-yl}-2H-1,2,3-triazol-2-yl)cyclobutanecarbonitrile] |
| 16 | 1250 | 530 | > 10000 | N#CC[C@]1(n2ncc(-c3cc(-c4cn[nH]c4N)cc4ncccc34)n2)C[C@H](C#N)C1 [Example 319, trans-3-{4-[7-(5-amino-1H-pyrazol-4-yl)quinolin-5-yl]-2H-1,2,3-triazol-2-yl}-3-(cyanomethyl)cyclobutanecarbonitrile] |
| 5 | 256 | 77 | 8030 | N#CC[C@]1(n2ncc(-c3cc(-c4cn[nH]c4N)cc4ncccc34)n2)C[C@@H](C#N)C1 [Example 320, cis-3-{4-[7-(5-amino-1H-pyrazol-4-yl)quinolin-5-yl]-2H-1,2,3-triazol-2-yl}-3-(cyanomethyl)cyclobutanecarbonitrile] |
| 844 | > 10000 | 7690 | > 10000 | C[C@]1(C#N)C[C@](CC#N)(n2ncc(-c3cc(-c4c[nH]nc4N)cc4ncccc34)n2)C1 [Example 321, trans-3-{4-[7-(3-amino-1H-pyrazol-4-yl)quinolin-5-yl]-2H-1,2,3-triazol-2-yl}-3-(cyanomethyl)-1-methylcyclobutanecarbonitrile] |
| 74 | 2590 | 959 | > 10000 | C[C@]1(C#N)C[C@@](CC#N)(n2ncc(-c3cc(-c4cn[nH]c4N)cc4ncccc34)n2)C1 [Example 322, cis-3-{4-[7-(5-amino-1H-pyrazol-4-yl)quinolin-5-yl]-2H-1,2,3-triazol-2-yl}-3-(cyanomethyl)-1-methylcyclobutanecarbonitrile] |
| 69 | 2840 | 244 | > 10000 | Cn1cc(-c2cc(-c3cnn(C4(CC#N)CN(S(C)(=O)=O)C4)n3)c3cccnc3c2)cn1 [Example 323, [3-{4-[7-(1-methyl-1H-pyrazol-4-yl)quinolin-5-yl]-2H-1,2,3-triazol-2-yl}-1-(methylsulfonyl)azetidin-3-yl]acetonitrile] |
| 30 | 1420 | 144 | 9930 | Cn1cc(-c2cc(-c3cnn([C@]4(CC#N)C[C@@H](C#N)C4)n3)c3cccnc3c2)cn1 [Example 324, trans-3-(cyanomethyl)-3-{4-[7-(1-methyl-1H-pyrazol-4-yl)quinolin-5-yl]-2H-1,2,3-triazol-2-yl}cyclobutanecarbonitrile] |
| 11 | 319 | 32 | 2150 | Cn1cc(-c2cc(-c3cnn(C4(CC#N)CC(C#N)C4)n3)c3cccnc3c2)cn1 (stereo not drawn) [Example 325, cis-3-(cyanomethyl)-3-{4-[7-(1-methyl-1H-pyrazol-4-yl)quinolin-5-yl]-2H-1,2,3-triazol-2-yl}cyclobutanecarbonitrile] |
| 9 | 332 | 45 | 4170 | N#CC[C@]1(n2ncc(-c3cc(-c4cnn(CCO)c4)cc4ncccc34)n2)C[C@H](C#N)C1 [Example 326, trans-3-(cyanomethyl)-3-(4-{7-[1-(2-hydroxyethyl)-1H-pyrazol-4-yl]quinolin-5-yl}-2H-1,2,3-triazol-2-yl)cyclobutanecarbonitrile] |
| 20 | 262 | 52 | 3290 | N#CC[C@]1(n2ncc(-c3cc(-c4cnn(CCO)c4)cc4ncccc34)n2)C[C@@H](C#N)C1 [Example 327, cis-3-(cyanomethyl)-3-(4-{7-[1-(2-hydroxyethyl)-1H-pyrazol-4-yl]quinolin-5-yl}-2H-1,2,3-triazol-2-yl)cyclobutanecarbonitrile] |
| 71 | 7000 | 666 | > 10000 | Cn1cc(-c2cc(-c3cnn(C4(CC#N)CC(C#N)C4)n3)c3cccnc3c2)c(CO)n1 (stereo not drawn) [Example 329, trans-3-(cyanomethyl)-3-(4-{7-[3-(hydroxymethyl)-1-methyl-1H-pyrazol-4-yl]quinolin-5-yl}-2H-1,2,3-triazol-2-yl)cyclobutanecarbonitrile] |
| 143 | 7700 | 1620 | > 10000 | Cn1ncc(-c2cc(-c3cnn([C@]4(CC#N)C[C@@H](C#N)C4)n3)c3cccnc3c2)c1N [Example 330, trans-3-{4-[7-(5-amino-1-methyl-1H-pyrazol-4-yl)quinolin-5-yl]-2H-1,2,3-triazol-2-yl}-3-(cyanomethyl)cyclobutanecarbonitrile] |
| 115 | 3700 | 740 | > 10000 | Cn1ncc(-c2cc(-c3cnn([C@]4(CC#N)C[C@H](C#N)C4)n3)c3cccnc3c2)c1N [Example 331, cis-3-{4-[7-(5-amino-1-methyl-1H-pyrazol-4-yl)quinolin-5-yl]-2H-1,2,3-triazol-2-yl}-3-(cyanomethyl)cyclobutanecarbonitrile] |
| 736 | > 10000 | 4710 | > 10000 | Cn1ncc(-c2cc(-c3cnn([C@]4(CC#N)C[C@@H](C#N)C4)n3)c3cccnc3c2)c1C(N)=O [Example 334, 4-(5-{2-[cis-3-cyano-1-(cyanomethyl)cyclobutyl]-2H-1,2,3-triazol-4-yl}quinolin-7-yl)-1-methyl-1H-pyrazole-5-carboxamide] |
| 8 | 326 | 32 | 3580 | Cc1nc(-c2cc(-c3cnn([C@]4(CC#N)C[C@H](C#N)C4)n3)c3cccnc3c2)c[nH]1 [Example 336, cis-3-(cyanomethyl)-3-{4-[7-(2-methyl-1H-imidazol-4-yl)quinolin-5-yl]-2H-1,2,3-triazol-2-yl}cyclobutanecarbonitrile] |
| 33 | 2910 | 243 | > 10000 | Cc1nc(-c2cc(-c3cnn([C@]4(CC#N)C[C@@H](C#N)C4)n3)c3cccnc3c2)c[nH]1 [Example 337, trans-3-(cyanomethyl)-3-{4-[7-(2-methyl-1H-imidazol-4-yl)quinolin-5-yl]-2H-1,2,3-triazol-2-yl}cyclobutanecarbonitrile] |
| 2460 | > 10000 | > 10000 | > 10000 | Cn1nncc1-c1cc(-c2cnn([C@]3(CC#N)C[C@H](C#N)C3)n2)c2cccnc2c1 [Example 338, cis-3-(cyanomethyl)-3-{4-[7-(1-methyl-1H-1,2,3-triazol-5-yl)quinolin-5-yl]-2H-1,2,3-triazol-2-yl}cyclobutanecarbonitrile] |
| 36 | 8370 | 146 | > 10000 | Cn1cc(-c2cc(-c3cnn([C@]4(CC#N)C[C@@H](C#N)C4)n3)c3cccnc3c2)nn1 [Example 339, trans-3-(cyanomethyl)-3-{4-[7-(1-methyl-1H-1,2,3-triazol-4-yl)quinolin-5-yl]-2H-1,2,3-triazol-2-yl}cyclobutanecarbonitrile] |
| 13 | 432 | 94 | 8910 | N#CCC1(n2ncc(-c3cc(-c4nc(CO)cs4)cc4ncccc34)n2)CC(C#N)C1 (stereo not drawn) [Example 340, cis-3-(cyanomethyl)-3-(4-{7-[4-(hydroxymethyl)-1,3-thiazol-2-yl]quinolin-5-yl}-2H-1,2,3-triazol-2-yl)cyclobutanecarbonitrile] |
| 57 | 3240 | 649 | > 10000 | N#CC[C@]1(n2ncc(-c3cc(-c4nc(CO)cs4)cc4ncccc34)n2)C[C@H](C#N)C1 [Example 341, trans-3-(cyanomethyl)-3-(4-{7-[4-(hydroxymethyl)-1,3-thiazol-2-yl]quinolin-5-yl}-2H-1,2,3-triazol-2-yl)cyclobutanecarbonitrile] |
| 135 | 2580 | 990 | > 10000 | N#CC[C@]1(n2ncc(-c3cc(-c4cnc(CO)s4)cc4ncccc34)n2)C[C@H](C#N)C1 [Example 342, trans-3-(cyanomethyl)-3-(4-{7-[2-(hydroxymethyl)-1,3-thiazol-5-yl]quinolin-5-yl}-2H-1,2,3-triazol-2-yl)cyclobutanecarbonitrile] |
| 65 | 3340 | 660 | > 10000 | N#CC[C@]1(n2ncc(-c3cc(-c4ncc(CO)s4)cc4ncccc34)n2)C[C@H](C#N)C1 [Example 343, trans-3-(cyanomethyl)-3-(4-{7-[5-(hydroxymethyl)-1,3-thiazol-2-yl]quinolin-5-yl}-2H-1,2,3-triazol-2-yl)cyclobutanecarbonitrile] |
